Data set [1] in a line: In vivo pharmacokinetic experiment, intravenous administration. Set-up: species or system Sprague Dawley rats. The settings on record: for AUC(0-inf) / MRT inf / clearance / half-life / Vd: male, Sprague-Dawley, rat, plasma, intravenous administration (1 mg/kg), SD rats; for half-life: read-out: T½ (converted); for Vd: read-out: Vss; for mean residence time (MRT) compared with compound 1 / terminal half-life compared with compound 1: intravenous administration, rats, in words. As to the method:
(§1) In this Example, the pharmacokinetic properties of compounds 1, 2, 3, 4 and 5 were evaluated via. i.v. and p.o. dosing to Sprague Dawley rats.
(§2) Experimental animals used in this Example and hereinafter were male SD rats of 7-9 weeks old, with body weight ranging from 186 to 231 g, which were purchased from Beijing Vital River Laboratory Animal Technology Co., Ltd. The animals were quarantined by veterinarian for 5 days after purchase, then animals had passed quarantine inspection were selected to be tested under SPE conditions, wherein the tested animals are assigned into 3 rats per group as follows.
Intravenous administration group: 1.61 mg of each of compounds 1-5 was respectively prepared into a solution of 1 mg/mL by using 1.610 mL 10% HP-β-CD as a diluent. Each solution was vortexed 1-2 mins after mixed fully, and then was ultrasonically treated for 28-30 mins. The obtained solution was used as medicine administrated to intravenous administration group, and the administration was conducted with a dose of 1 mL/kg body weight of each rat.
(§3) For both oral administration group and intravenous administration group, blood samples were collected at 0.0833 h (5 min), 0.25 h (15 min), 0.5 h, 1 h, 2 h, 4 h, 8 h, and 24 h after administration. After isoflurane anesthesia 0.3 mL whole blood was collected from orbital venous plexus of the animals at each time point. The animals would be euthanized after all samples were collected.
(§4) The collected blood samples were placed in EP tubes containing heparin sodium (about 10 μl, 1000 IU/mL), which were then placed in trash ice immediately, and centrifuged at 4,000 rpm and a low temperature (4° C.) for 5 minutes. The plasma was isolated rapidly and then stored at −20° C. until analysis.
(§5) The concentration of each compound in blood was measured by LC-MS/MS-001 (Q-trap-3200) with osalmide as internal standard material, as follows. 24 μL blank plasma was added into 6 μL plasma sample (5 times of dilution), and then a solution of acetonitrile containing 150 μL internal standard material (osalmide in 100 μg/mL) was added in. The mixture was shaken for 5 minutes, and then centrifuged at 4,000 rpm for 5 minutes. 2 μL of the obtained sample was implanted into LC-MS/MS for analysis. As for undiluted plasma sample, 30 μL of it was added into a solution of acetonitrile containing 150 μL internal standard material (osalmide in 100 μg/mL). The mixture was shaken for 5 minutes, and then centrifuged at 4,000 rpm for 5 minutes. 2 μL of the obtained sample was implanted into LC-MS/MS for analysis.
(§6) As for data analysis, WinNolin (V6.2) non-compartment model (NCA) was used for calculating main metabolic pharmacokinetic parameters including t1/2, AUC(0−t), AUCinf, V, Cl, MRT, etc., and Microsoft Office EXCEL was used for calculating mean values, standard deviations and coefficients of variation.

The nature of data set [2]: In vivo pharmacokinetic experiment, oral administration. The settings on record: for half-life / AUC(0-inf) / Cmax / Tmax: male, Sprague-Dawley, rat, plasma; for half-life: po, 3 mg/kg; for elimination speed after the highest concentration, compared with compounds 1 and 5: oral administration, FIGS. 1A and 1B. Set-up: species or system Sprague Dawley rats. As for the experimental part:
as §1, §2
Oral administration group: 2.74 mg of each of compounds 1-5 was respectively prepared into a solution of 0.3 mg/mL by using 9.113 mL 0.5% CMC-Na as a diluent. Each solution was vortexed 1-2 mins after mixed fully, and then was ultrasonically treated for 20-30 mins until a uniform suspension was obtained. The uniform suspension was used as medicine administrated to oral administration group, and the administration was conducted with a dose of 10 mL/kg body weight of each rat.
as §3, §4, §5, §6

The next data set has as its target human S1P3 (Homo sapiens, UniProt Q99500). Nature of the data set: Internalization effect experiment of S1P3 (CHO-S cells). Particulars: for internalization activation effect on S1P3 subtype: CHO-S cells expressing human S1P3, in words; for EC50: CHO-S cells expressing human S1P3, read-out: Receptor Internalization (EC50) S1P3. Format: cell-based. As to the method:
CHO—S cells bearing human S1P1 with Myc tag were harvested and then adjusted to a density of one million cells per mL by Dulbecco's modified Eagle's medium (DMEM). […] After incubation, the mixture was centrifuged at 800 RPM for 5 minutes to obtain the cells. The cells were resuspended in FACS buffer (PBS containing 1% BSA), and Myc antibody labelled with fluorescein isothiocyanate (FITC) (from Californian Miltenyi Biotec GmbH, USA) was added in and incubated for 1 hour on ice. The cells were washed, resuspended in pre-cooled FACS buffer and analysed by FACS Calibur flow cytometry.
CHO—S cells expressing human S1P3 were used to perform internalization detection test. Besides cells, experimental method was the same with the method of the internalized detection experiment of S1P1.

The target of another data set is T1, human S1P1 (Homo sapiens, UniProt P21453).
T1 construct: expressed in transfected cells; host or cells: CHO-S cells
Nature of the data set: Internalization effect experiment on S1P1 (CHO-S cells, Myc tag, flow cytometry). It is filed as cell-based. The settings on record: for EC50: CHO-S cells expressing human S1P1, 1 hour at 37° C., read-out: Receptor Internalization (EC50) S1P1; for activity of inducing S1P1 internalization: CHO-S cells expressing human S1P1, in words. The source says: It is well known that S1P1 small molecule agonists can prevent lymphocytes from entering the peripheral circulation by inducing internalization of S1P1 on cell surface. In order to determine whether the compounds provided by present invention have an activity of inducing S1P1 internalization, CHO—S cells expressing human S1P1, to replace the lymphocytes, are used as detection system of S1P1 internalization. For ease of monitoring the S1P1 on cell surface, a Myc tag is fused to N-terminal of S1P1, thus the expression of S1P1 is analyzed by flow cytometry after incubating the cells with fluorescent-labeled antibody against the Myc tag.
A 10 mM stock solution was prepared by dissolving compound 2 provided by the present invention in dimethyl sulfoxide (DMSO), and then the stock solution was diluted to different concentrations as desired with DMEM. CHO—S cells bearing human S1P1 with Myc tag were harvested and then adjusted to a density of one million cells per mL by Dulbecco's modified Eagle's medium (DMEM). Different concentrations of Compound 2 diluted in an equal volume were mixed and the cell suspension and then incubated at 37° C. for 1 hour. After incubation, the mixture was centrifuged at 800 RPM for 5 minutes to obtain the cells. The cells were resuspended in FACS buffer (PBS containing 1% BSA), and Myc antibody labelled with fluorescein isothiocyanate (FITC) (from Californian Miltenyi Biotec GmbH, USA) was added in and incubated for 1 hour on ice. The cells were washed, resuspended in pre-cooled FACS buffer and analysed by FACS Calibur flow cytometry.

The mark [3] stands for this setting: oral administration (3 mg/kg), SD rats, read-out: T½ (converted).
Setting [4] is: oral administration (3 mg/kg), SD rats.
[5] abbreviates: after oral administration, rats.
[6] abbreviates: after oral administration, rats, read-out: terminal half-life (converted).

Sequence of human S1P3 (Q99500 whole entry): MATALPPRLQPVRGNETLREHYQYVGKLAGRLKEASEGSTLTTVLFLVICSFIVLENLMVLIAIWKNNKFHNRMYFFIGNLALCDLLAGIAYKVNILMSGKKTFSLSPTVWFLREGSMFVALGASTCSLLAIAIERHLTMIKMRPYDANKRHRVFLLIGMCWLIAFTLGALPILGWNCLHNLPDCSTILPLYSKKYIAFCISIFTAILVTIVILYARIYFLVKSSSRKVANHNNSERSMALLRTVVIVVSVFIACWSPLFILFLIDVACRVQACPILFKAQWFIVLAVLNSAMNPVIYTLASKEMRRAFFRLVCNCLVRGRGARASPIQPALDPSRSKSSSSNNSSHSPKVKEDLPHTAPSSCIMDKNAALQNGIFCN
T1 sequence (P21453 whole entry): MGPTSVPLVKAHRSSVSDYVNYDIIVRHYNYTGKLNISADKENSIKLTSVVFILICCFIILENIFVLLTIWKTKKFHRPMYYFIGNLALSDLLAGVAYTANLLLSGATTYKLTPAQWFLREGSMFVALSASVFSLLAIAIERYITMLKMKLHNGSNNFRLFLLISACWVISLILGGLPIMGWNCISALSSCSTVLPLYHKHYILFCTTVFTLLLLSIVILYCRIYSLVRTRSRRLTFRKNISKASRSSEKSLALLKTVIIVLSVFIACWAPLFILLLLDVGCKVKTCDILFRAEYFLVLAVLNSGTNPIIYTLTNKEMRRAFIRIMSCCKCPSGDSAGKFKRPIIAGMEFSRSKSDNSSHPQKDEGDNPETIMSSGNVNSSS

Regarding `Cc1cc(-c2noc(-c3ccc(CC(C)C)cc3)n2)ccc1CN1CC(C(=O)O)C1` [Compound 5, 1-{2-methyl-4-[5-(4-isobutylphenyl)-1,2,4-oxadiazol-3-yl]-benzyl}-3-azetidine carboxylic acid], in data set [1], the AUC(0-inf) (as a rule, the area under the concentration-time curve extrapolated to infinity) amounted to 2200 ± 89.5 ng·h/mL; the MRT inf (in general, a mean duration of stay, worked out from the concentration-time curve) stood at 12.9 ± 1.24 h; the clearance (commonly a measure of how efficiently the substance is removed, as volume per time) was 7.57 mL/min/kg; the half-life was 10.1 ± 1.02 h. Further, the Vd in data set [1] came out at 5.87 ± 0.802 L/kg. Also, the half-life in data set [2] (setting [3]) was 12.3 ± 2.09 h. Besides, in data set [2] (setting [4]), the area under the curve AUC(0-inf) was 5460 ± 401 ng·h/mL; the Cmax – broadly, the highest concentration seen after dosing – was 249 ± 8.74 ng/mL; the time to peak (Tmax) (commonly the time from dosing to the highest level) is 3.33 h; the F is listed as 74.0%. Also, the “half-life compared with compound 1” value in data set [2] (oral and intravenous (Tables 1 and 2), rats, in words) is given as “extended rather than shortened”.

As to `CC(C)Cc1ccc(-c2nc(-c3ccc(CN4CC(C(=O)O)C4)c(Cl)c3)no2)cc1` [Compound 3, 1-{2-chloro-4-[5-(4-isobutylphenyl)-1,2,4-oxadiazol-3-yl]-benzyl}-3-azetidine carboxylic acid], in data set [1], the “mean residence time (MRT) compared with compound 1” value is “reduced significantly”, the “terminal half-life compared with compound 1” value is recorded as “reduced significantly”, the AUC(0-inf) is 2770 ± 410 ng·h/mL and the MRT inf amounted to 5.11 ± 0.39 h. Besides, in data set [1], the clearance is 6.1 mL/min/kg, the half-life was 5.04 ± 0.37 h and the Vd is 2.65 ± 0.229 L/kg. Moreover, on human S1P3, the “internalization activation effect on S1P3 subtype” value is “no internalization activation effect on S1P3 subtype” and the EC50 (in general, the concentration giving half of the maximal effect) is over 1000 nM. The “half-life shortening relative to compound 1” value in data set [2] (setting [5]) is given as about 50%. The half-life in data set [2] (setting [6]) was under 5.5 h. Besides, the half-life in data set [2] (setting [3]) was 5.3 ± 0.51 h. Besides, in data set [2] (setting [4]), the AUC(0-inf) came out at 8110 ± 469 ng·h/mL, the highest concentration (Cmax) amounted to 681 ± 61.1 ng/mL, the Tmax is 3.33 h and the F is listed as 96.1%. The “elimination speed after the highest concentration, compared with compounds 1 and 5” value in data set [2] (rats, in words) was “accelerated obviously”. Further, on human S1P1, the concentration for a half-maximal effect (EC50) came out at 3.21 nM and the “activity of inducing S1P1 internalization” value is on record as “no significant difference with that of compound 1”.

Take `CC(C)Cc1ccc(-c2nc(-c3ccc(CN4CC(C(=O)O)C4)c(Br)c3)no2)cc1` [Compound 4, 1-{2-bromo-4-[5-(4-isobutylphenyl)-1,2,4-oxadiazol-3-yl]-benzyl}-3-azetidine carboxylic acid]: in data set [1], the “mean residence time (MRT) compared with compound 1” value is “reduced significantly”, the “terminal half-life compared with compound 1” value is listed as “reduced significantly”, the AUC(0-inf) came out at 2770 ± 200 ng·h/mL and the MRT inf turned out to be 5.23 ± 0.36 h. For the same compound, in data set [1], the clearance is 6.03 mL/min/kg, the half-life is 5.29 ± 0.6 h and the Vd was 2.75 ± 0.112 L/kg. Further, on human S1P3, the “internalization activation effect on S1P3 subtype” value was “no internalization activation effect on S1P3 subtype” and the EC50 is over 1000 nM. In data set [2] (setting [5]), the “half-life shortening relative to compound 1” value is given as about 50%. The half-life in data set [2] (setting [6]) was under 5.5 h. For the same compound, the half-life in data set [2] (setting [3]) was 5.37 ± 0.15 h. Besides, in data set [2] (setting [4]), the AUC(0-inf) was 4420 ± 449 ng·h/mL, the Cmax came to 346 ± 29.6 ng/mL, the Tmax came to 1.15 h and the F stood at 52.9%. Also, the “elimination speed after the highest concentration, compared with compounds 1 and 5” value in data set [2] (rats, in words) was “accelerated obviously”. Besides, on human S1P1, the EC50 is 4.2 nM and the “activity of inducing S1P1 internalization” value is “no significant difference with that of compound 1”.

Consider `CC(C)Cc1ccc(-c2nc(-c3ccc(CN4CC(C(=O)O)C4)cc3)no2)cc1` [Compound 1, 1-{4-[5-(4-isobutylphenyl)-1,2,4-oxadiazol-3-yl]-benzyl}-3-azetidine carboxylic acid, reference compound], for which, in data set [1], the total exposure AUC(0-inf) stood at 2380 ± 329 ng·h/mL, the mean residence time MRT inf was found to be 11 ± 1.2 h, the clearance was 7.12 mL/min/kg and the half-life is 8.69 ± 0.8 h. The Vd in data set [1] is 4.65 ± 0.389 L/kg. Further, the EC50 on human S1P3 was over 1000 nM. Moreover, the half-life in data set [2] (setting [6]) was about 11 h. In data set [2] (setting [3]), the half-life is 10.6 ± 1.07 h. For the same compound, in data set [2] (setting [4]), the area under the curve AUC(0-inf) is 6200 ± 147 ng·h/mL, the highest level (Cmax) was 365 ± 51.5 ng/mL, the time to peak (Tmax) came to 2 h and the F was determined as 82.5%. Moreover, at human S1P1, the EC50 was determined as 5.69 nM.

Source of the values: patent publication US10280158B2, “Immune adjustment compound, use thereof and pharmaceutical composition comprising same” (SUZHOU CONNECT BIOPHARMACEUTICALS, LTD., priority 2013, dated 2019).
